These results are taken from PubChem BioAssay AID2202555 (NIEHS Division of Translational Toxicology (DTT)).

Inconclusive results are not listed. Activity calls are given as the source filed them. The rule behind the calls is not given here.

The data set deals with rat and mouse 2-year carcinogenicity bioassay, tumor evidence. In words: Consolidated carcinogenicity assay summary data. The text has this: Cancer Evaluation Criteria
The National Toxicology Program describes the results of individual experiments on a chemical agent and notes the strength of the evidence for conclusions regarding each study. […] Other organizations, such as the International Agency for Research on Cancer, assign a strength of evidence for conclusions based on an examination of all available evidence, including animal studies such as those conducted by the NTP, epidemiologic studies, and estimates of exposure. Thus, the actual determination of risk to humans from chemicals found to be carcinogenic in laboratory animals requires a wider analysis that extends beyond the purview of these studies.
Five categories of evidence of carcinogenic activity are used in the Technical Report series to summarize the strength of evidence observed in each experiment: two categories for positive results (clear evidence and some evidence); one category for uncertain findings (equivocal evidence); one category for no observable effects (no evidence); and one category for experiments that cannot be evaluated because of major flaws (inadequate study). These categories of interpretative conclusions were first adopted in June 1983 and then revised on March 1986 for use in the Technical Report series to incorporate more specifically the concept of actual weight of evidence of carcinogenic activity. For each separate experiment (male rats, female rats, male mice, female mice), one of the following five categories is selected to describe the findings. These categories refer to the strength of the experimental evidence and not to potency or mechanism.
For studies showing multiple chemical-related neoplastic effects that if considered individually would be assigned to different levels of evidence categories, the following convention has been adopted to convey completely the study results. In a study with clear evidence of carcinogenic activity at some tissue sites, other responses that alone might be deemed some evidence are indicated as "were also related" to chemical exposure. In studies with clear or some evidence of carcinogenic activity, other responses that alone might be termed equivocal evidence are indicated as "may have been" related to chemical exposure.
When a conclusion statement for a particular experiment is selected, consideration must be given to key factors that would extend the actual boundary of an individual category of evidence. Such consideration should allow for incorporation of scientific experience and current understanding of long-term carcinogenesis studies in laboratory animals, especially for those evaluations that may be on the borderline between two adjacent levels. These considerations should include:
- adequacy of the experimental design and conduct;
- occurrence of common versus uncommon neoplasia;
- progression (or lack thereof) from benign to malignant neoplasia as well as from preneoplastic to neoplastic lesions;
- some benign neoplasms have the capacity to regress but others (of the same morphologic type) progress. At present, it is impossible to identify the difference. Therefore, where progression is known to be a possibility, the most prudent course is to assume that benign neoplasms of those types have the potential to become malignant;
- combining benign and malignant tumor incidences known or thought to represent stages of progression in the same organ or tissue;
- latency in tumor induction;
- multiplicity in site -specific neoplasia;
- supporting information from proliferative lesions (hyperplasia) in the same site of neoplasia or in other experiments (same lesion in another sex or species);
- presence or absence of dose relationships;
- statistical significance of the observed tumor increase;
- concurrent control tumor incidence as well as the historical control rate and variability for a specific neoplasm;
- survival-adjusted analyses and false positive or false negative concerns;
- structure-activity correlations; and
[…]

[1] abbreviates: Route (rodents): Interperitoneal.

For the molecule `ClC1=C(Cl)C2(Cl)C3C(Cl)C(Cl)CC3C1(Cl)C2(Cl)Cl` (stereo not given), the carcinogen call (Route (rodents): Dosed feed) was “active; no evidence”.
With `FC(F)=C(F)F`, the carcinogen call (Route (rodents): Inhalation) is “active; clear evidence”.
Regarding `OC(c1ccc(Cl)cc1)(c1ccc(Cl)cc1)C(Cl)(Cl)Cl`, for the setting “Route (rodents): Dosed feed”, the carcinogen call was “active; no evidence”.
For the molecule `CCBr`, for the setting “Route (rodents): Inhalation”, the carcinogen call is “active; some evidence”.
For `Cc1ccc(N=Nc2c(O)ccc3ccccc23)c([N+](=O)[O-])c1`, the carcinogen call (Route (rodents): Dosed feed) was “active; some evidence”.
Consider `ClC1=C(Cl)C2(Cl)C3C(Cl)C=CC3C1(Cl)C2(Cl)Cl` (stereo not given), for which the carcinogen call (Route (rodents): Dosed feed) was “active; no evidence”.
On to `COc1ccccc1[N+](=O)[O-]`, for which the carcinogen call (Route (rodents): Dosed feed) was “active; clear evidence”.
For the molecule `[O-][Cl+2]([O-])O`, where the note is “Route (rodents): Dosed water”, the carcinogen call is “active; some evidence”.
As to `Nc1cc(Cl)c(N)c(Cl)c1`, the carcinogen call (Route (rodents): Dosed feed) was “active; no evidence”.
On to `ClCCCl`, for which, where the note is “Route (rodents): Gavage”, the carcinogen call is “active; clear evidence”.
For the molecule `c1ccc2c(c1)CCCC2`, the carcinogen call (Route (rodents): Inhalation) is “active; some evidence”.
The same measure, in the same setting: next, `O=[O+][O-]`: “active; no evidence”.
Turning to `COc1ccccc1N`, where the note is “Route (rodents): Dosed feed”, the carcinogen call is “active; clear evidence”.
Take `O.O.O.O.O.O.O.O=S(=O)([O-])[O-].[Co+2]`: for the setting “Route (rodents): Inhalation”, the carcinogen call is “active; some evidence”.
Take `c1ccc2occc2c1`: under “Route (rodents): Gavage”, the carcinogen call is “active; no evidence”.
Consider `O=[N+]([O-])c1ccc2nc[nH]c2c1`, for which, where the note is “Route (rodents): Dosed feed”, the carcinogen call was “active; no evidence”.
In the case of `C=CC=C`, the carcinogen call (Route (rodents): Inhalation) was “active”.
Regarding `COc1cc(-c2ccc(N)c(OC)c2)ccc1N`, the carcinogen call (Route (rodents): Dosed water) was “active; clear evidence”.
Turning to `C1CCC2CCCCC2C1` (stereo not given), where the note is “Route (rodents): Inhalation”, the carcinogen call is “active; clear evidence”.
For `ClCC(Cl)(Cl)Cl`, the carcinogen call (Route (rodents): Gavage) is “active; equivocal evidence”.
In the case of `Clc1cc2c(c(Cl)c1Cl)Oc1cc(Cl)c(Cl)c(Cl)c1O2`, the carcinogen call (Route (rodents): Gavage, Second Route: Topical) is “active; equivocal evidence”.
On to `CCC1CO1` (stereo not given), for which the carcinogen call (Route (rodents): Inhalation) is “active; clear evidence”.
Turning to `Cc1ncc[nH]1`, the carcinogen call (Route (rodents): Dosed feed) is “active; some evidence”.
On the same count and under the same terms, next, `Nc1ccc(Sc2ccc(N)cc2)cc1`: “active; clear evidence”.
Still for that read-out and setting: next, `Nc1ccc(N=Nc2ccc(-c3ccc(N=Nc4c(S(=O)(=O)O)cc5cc(S(=O)(=O)O)c(N=Nc6ccccc6)c(O)c5c4N)cc3)cc2)c(N)c1`: “active; clear evidence”.
On to `OCC1CO1` (stereo not given), for which the carcinogen call (Route (rodents): Gavage) was “active; clear evidence”.
Turning to `CCOc1ccc(NC(C)=O)cc1[N+](=O)[O-]`, where the note is “Route (rodents): Dosed feed”, the carcinogen call was “active; no evidence”.
`CC(CCl)OP(=O)(OC(C)CCl)OC(C)CCl` (stereo not given): the carcinogen call (Route (rodents): Dosed feed) is “active; some evidence”.
As for `CC(CN1CC(=O)NC(=O)C1)N1CC(=O)NC(=O)C1` (stereo not given), the carcinogen call under setting [1] is “active; no evidence”.
As to `Clc1ccc(Cl)cc1`, the carcinogen call (Route (rodents): Gavage) was “active; clear evidence”.
In the case of `ClC(Cl)=C(c1ccc(Cl)cc1)c1ccc(Cl)cc1`, under “Route (rodents): Dosed feed”, the carcinogen call is “active; no evidence”.
The same measure, in the same setting: the value for `O=C(O)C1C(C(=O)O)C2(Cl)C(Cl)=C(Cl)C1(Cl)C2(Cl)Cl` (stereo not given) was “active; clear evidence”.
On to `C1CC2OC2CC1C1CO1` (stereo not given), for which, under “Route (rodents): Topical”, the carcinogen call was “active; clear evidence”.
Regarding `Cc1cc(-c2ccc(N)c(C)c2)ccc1N`, the carcinogen call (Route (rodents): Dosed water) was “active; clear evidence”.
For the molecule `CCCCC(CC)COC(=O)CCCCC(=O)OCC(CC)CCCC` (stereo not given), under “Route (rodents): Dosed feed”, the carcinogen call was “active; no evidence”.
As to `CN(C)C(=O)Nc1ccc(Cl)cc1`, the carcinogen call (Route (rodents): Dosed feed) was “active; clear evidence”.
For `Nc1ccc(O)c(N)c1`, the carcinogen call (Route (rodents): Gavage) is “active; no evidence”.
`O=C(O)C(F)(F)C(F)(F)C(F)(F)C(F)(F)C(F)(F)C(F)(F)C(F)(F)F`: the carcinogen call (Route (rodents): Dosed feed) was “active; clear evidence”.
Turning to `CC1CO1` (stereo not given), the carcinogen call (Route (rodents): Inhalation) was “active; some evidence”.
`O=C(O)c1cc(N=Nc2ccc(S(=O)(=O)Nc3ccccn3)cc2)ccc1O`: the carcinogen call (Route (rodents): Gavage) was “active; some evidence”.
Regarding `c1cc(OCC2CO2)cc(OCC2CO2)c1` (stereo not given), the carcinogen call (Route (rodents): Gavage) was “active; clear evidence”.
For `Cc1ccccc1[N+](=O)[O-]`, the carcinogen call (Route (rodents): Dosed feed) was “active; clear evidence”.
For `C=CC#N`, the carcinogen call (Route (rodents): Gavage) is “active”.
As for `NCCCCCCCCCCC(=O)O`, under “Route (rodents): Dosed feed”, the carcinogen call was “active; clear evidence”.
Turning to `O=C1CN(N=Cc2ccc([N+](=O)[O-])o2)C(=O)N1`, where the note is “Route (rodents): Dosed feed”, the carcinogen call was “active; some evidence”.
As to `C=C(C)c1ccccc1`, the carcinogen call (Route (rodents): Inhalation) was “active; some evidence”.
Turning to `[O]=[Sb][O][Sb]=[O]`, the carcinogen call (Route (rodents): Inhalation) is “active; some evidence”.
In the case of `BrC(Br)Br`, the carcinogen call (Route (rodents): Gavage) is “active; some evidence”.
In the case of `C=CC(=C)Cl`, the carcinogen call (Route (rodents): Inhalation) is “active; clear evidence”.
Consider `Oc1ccc(Cl)cc1Cc1ccccc1`, for which, under “Route (rodents): Gavage”, the carcinogen call is “active; no evidence”.
On to `Nc1ccccc1-c1ccccc1`, for which the carcinogen call (Route (rodents): Dosed feed) is “active; no evidence”.
Regarding `CC(C)CON=O`, the carcinogen call (Route (rodents): Inhalation) was “active; clear evidence”.
For the molecule `CCCCC(CC)COC(=O)c1ccccc1C(=O)OCC(CC)CCCC` (stereo not given), the carcinogen call (Route (rodents): Dosed feed) was “active; clear evidence”.
As for `COc1ccc(C(=O)/C(Br)=C\C(=O)O)cc1`, the carcinogen call under setting [1] is “active; clear evidence”.
Regarding `O=[N+]([O-])c1ccc2c3c(cccc13)CC2`, the carcinogen call (Route (rodents): Dosed feed) is “active; clear evidence”.
On to `C=C(Cl)Cl`, for which the carcinogen call (Route (rodents): Inhalation, Second Route: Gavage) is “active; clear evidence”.
For the molecule `C=CC(=O)OCC`, the carcinogen call (Route (rodents): Gavage) was “active; clear evidence”.
On to `CCNC(=O)Nc1ncc([N+](=O)[O-])s1`, for which, under “Route (rodents): Dosed feed”, the carcinogen call was “active; no evidence”.
Consider `C=CC(=C)CCC=C(C)C`, for which the carcinogen call (Route (rodents): Gavage) was “active; clear evidence”.
Consider `CNc1ccc(N(CCO)CCO)cc1[N+](=O)[O-]`, for which the carcinogen call (Route (rodents): Dosed feed) was “active; equivocal evidence”.
On to `ClC(Cl)(Cl)C(Cl)(Cl)Cl`, for which the carcinogen call (Route (rodents): Gavage) was “active; clear evidence”.
On to `COc1ccc([N+](=O)[O-])cc1N`, for which, for the setting “Route (rodents): Dosed feed”, the carcinogen call was “active; clear evidence”.
`Nc1cc(S(=O)(=O)[O-])cc2cc(S(=O)(=O)[O-])c(N=Nc3ccc(-c4ccc(N=Nc5c(S(=O)(=O)[O-])cc6cc(S(=O)(=O)[O-])cc(N)c6c5[O-])c([O-])c4)cc3[O-])c([O-])c12.[Cu+2].[Cu+2].[Na+].[Na+].[Na+].[Na+]`: the carcinogen call (Route (rodents): Dosed feed) was “active; some evidence”.
Turning to `C=C(C)C`, the carcinogen call (Route (rodents): Inhalation) is “active; some evidence”.
Turning to `O=C(O)C(Br)Br`, the carcinogen call (Route (rodents): Dosed water) is “active; some evidence”.
On to `COc1cc(-c2ccc(N=C=O)c(OC)c2)ccc1N=C=O`, for which, for the setting “Route (rodents): Dosed feed”, the carcinogen call was “active; clear evidence”.
On to `O=Cc1ccc(CO)o1`, for which the carcinogen call (Route (rodents): Gavage) is “active; no evidence”.
As for `O=c1c(-c2ccc(O)cc2)coc2cc(O)cc(O)c12`, the carcinogen call (Route (rodents): Dosed feed) was “active; no evidence”.
In the case of `C=C(C)CCl`, the carcinogen call (Route (rodents): Gavage) was “active; clear evidence”.
As to `[O-]/[N+](=N\O)c1ccccc1`, the carcinogen call (Route (rodents): Dosed feed) was “active; clear evidence”.
For `CN(C)c1ccc(C(=O)c2ccc(N(C)C)cc2)cc1`, the carcinogen call (Route (rodents): Dosed feed) was “active; clear evidence”.
`O=C([O-])c1cc(N=Nc2ccc(-c3ccc(N=Nc4c(O)ccc(N=Nc5cc(S(=O)(=O)[O-])ccc5[O-])c4[O-])cc3)cc2)ccc1O.[Cu+2].[Na+].[Na+]`: the carcinogen call (Route (rodents): Dosed feed) is “active; no evidence”.
Turning to `Clc1ccc(N=Nc2ccc(Cl)c(Cl)c2)cc1Cl`, for the setting “Route (rodents): Gavage”, the carcinogen call was “active; clear evidence”.
Consider `O=P(OCC(Br)CBr)(OCC(Br)CBr)OCC(Br)CBr` (stereo not given), for which, under “Route (rodents): Dosed feed”, the carcinogen call is “active; clear evidence”.
In the case of `O=C(O)C(Cl)Br` (stereo not given), under “Route (rodents): Dosed water”, the carcinogen call is “active; clear evidence”.
Take `CC(=O)CC(C)C`: the carcinogen call (Route (rodents): Inhalation) is “active; some evidence”.
`CC(COc1ccccc1)N(CCCl)Cc1ccccc1` (stereo not given): under setting [1], the carcinogen call was “active; clear evidence”.
Consider `O=Nc1ccc(NO)cc1`, for which, where the note is “Route (rodents): Dosed feed”, the carcinogen call was “active; no evidence”.
On the same count and under the same terms, next, `O=C1OC(c2ccc(O)cc2)(c2ccc(O)cc2)c2ccccc21`: “active; clear evidence”.
`C[C@]12C/C(=C/O)C(=O)C[C@@H]1CC[C@@H]1[C@@H]2CC[C@@]2(C)[C@H]1CC[C@]2(C)O`: the carcinogen call (Route (rodents): Gavage) was “active; equivocal evidence”.
